ChEMBL document CHEMBL1773059, “NMS-P937, a 4,5-dihydro-1H-pyrazolo[4,3-h]quinazoline derivative as potent and selective Polo-like kinase 1 inhibitor” (Bioorg Med Chem Lett, 2011)
Values after ≈ are worked out from the molar mass of the structure shown.

How the values were obtained:
[1] = target: Tyrosine-protein kinase ZAP-70 (Homo sapiens, UniProt P43403); assay: Inhibition of ZAP70 assessed as [33P]gamma-ATP incorporation into substrate after 60 mins by gamma counting
[2] = target: Tyrosine-protein kinase JAK1 (Homo sapiens, UniProt P23458); assay: Inhibition of JAK1 assessed as [33P]gamma-ATP incorporation into substrate after 60 mins by gamma counting
[3] = Solubility of compound in 10% Tween 80; type: physicochemical
[4] = target: Epidermal growth factor receptor (Homo sapiens, UniProt P04626+P00533+Q15303+P21860); assay: Inhibition of EGFR1 assessed as [33P]gamma-ATP incorporation into substrate after 60 mins by gamma counting; type: protein assay
[5] = target: Vascular endothelial growth factor receptor 3 (Homo sapiens, UniProt P35916); assay: Inhibition of VEGFR3 assessed as [33P]gamma-ATP incorporation into substrate after 60 mins by gamma counting
[6] = target: Non-receptor tyrosine-protein kinase TYK2 (Homo sapiens, UniProt P29597); assay: Inhibition of TYK2 assessed as [33P]gamma-ATP incorporation into substrate after 60 mins by gamma counting
Non-receptor tyrosine-protein kinase TYK2, sequence (P29597 whole entry): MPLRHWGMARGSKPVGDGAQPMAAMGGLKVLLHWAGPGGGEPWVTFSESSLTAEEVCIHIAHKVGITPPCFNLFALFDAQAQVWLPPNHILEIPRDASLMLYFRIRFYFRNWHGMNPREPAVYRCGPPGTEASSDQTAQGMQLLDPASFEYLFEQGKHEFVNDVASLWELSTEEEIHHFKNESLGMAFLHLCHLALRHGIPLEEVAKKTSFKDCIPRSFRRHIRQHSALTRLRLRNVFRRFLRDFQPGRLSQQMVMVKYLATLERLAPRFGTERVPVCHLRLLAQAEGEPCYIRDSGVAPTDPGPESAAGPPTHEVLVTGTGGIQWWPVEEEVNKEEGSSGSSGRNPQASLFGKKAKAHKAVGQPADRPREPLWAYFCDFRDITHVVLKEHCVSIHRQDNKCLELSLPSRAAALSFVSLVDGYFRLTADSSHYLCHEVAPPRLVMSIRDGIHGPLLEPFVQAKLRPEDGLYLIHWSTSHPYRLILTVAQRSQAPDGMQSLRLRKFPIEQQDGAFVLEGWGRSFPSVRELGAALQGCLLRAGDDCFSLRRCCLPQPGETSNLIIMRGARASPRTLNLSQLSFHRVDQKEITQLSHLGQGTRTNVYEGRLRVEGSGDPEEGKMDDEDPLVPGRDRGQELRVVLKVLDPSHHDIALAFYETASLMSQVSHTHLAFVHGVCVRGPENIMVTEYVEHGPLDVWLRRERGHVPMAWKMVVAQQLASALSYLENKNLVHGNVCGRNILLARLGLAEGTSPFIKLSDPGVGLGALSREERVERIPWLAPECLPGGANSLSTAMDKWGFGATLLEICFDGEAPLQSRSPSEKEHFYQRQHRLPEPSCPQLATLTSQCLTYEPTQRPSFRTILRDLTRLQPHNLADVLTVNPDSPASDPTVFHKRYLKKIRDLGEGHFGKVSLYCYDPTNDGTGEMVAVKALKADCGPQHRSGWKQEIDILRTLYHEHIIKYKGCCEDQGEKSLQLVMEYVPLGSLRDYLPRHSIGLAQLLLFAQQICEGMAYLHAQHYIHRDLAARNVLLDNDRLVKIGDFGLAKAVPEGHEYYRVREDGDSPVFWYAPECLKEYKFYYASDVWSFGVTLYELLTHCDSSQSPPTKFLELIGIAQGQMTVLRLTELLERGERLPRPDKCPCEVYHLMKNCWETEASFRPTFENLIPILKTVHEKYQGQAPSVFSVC

[7] = target: Tyrosine-protein kinase SYK (Homo sapiens, UniProt P43405); assay: Inhibition of Syk assessed as [33P]gamma-ATP incorporation into substrate after 60 mins by gamma counting
[8] = target: Aurora kinase A (Homo sapiens, UniProt O14965); assay: Inhibition of Aur-A assessed as [33P]gamma-ATP incorporation into substrate after 60 mins by gamma counting
Aurora kinase A, sequence (O14965 whole entry): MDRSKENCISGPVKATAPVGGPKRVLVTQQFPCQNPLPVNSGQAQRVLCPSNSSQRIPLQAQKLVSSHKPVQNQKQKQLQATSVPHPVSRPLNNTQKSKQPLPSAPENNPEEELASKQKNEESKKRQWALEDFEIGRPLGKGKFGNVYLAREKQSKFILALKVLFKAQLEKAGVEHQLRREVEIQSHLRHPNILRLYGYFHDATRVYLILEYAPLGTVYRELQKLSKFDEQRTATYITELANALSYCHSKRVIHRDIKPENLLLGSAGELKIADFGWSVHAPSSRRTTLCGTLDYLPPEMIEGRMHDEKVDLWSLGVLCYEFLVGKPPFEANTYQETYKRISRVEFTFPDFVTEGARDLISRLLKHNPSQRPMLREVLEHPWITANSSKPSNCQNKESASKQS

[9] = target: Mitogen-activated protein kinase 14 (Homo sapiens, UniProt Q16539); assay: Inhibition of P38alpha assessed as [33P]gamma-ATP incorporation into substrate after 60 mins by gamma counting
[10] = target: Focal adhesion kinase 1 (Homo sapiens, UniProt Q05397); assay: Inhibition of FAK assessed as [33P]gamma-ATP incorporation into substrate after 60 mins by gamma counting
[11] = target: Serine/threonine-protein kinase haspin (Homo sapiens, UniProt Q8TF76); assay: Inhibition of Haspin assessed as [33P]gamma-ATP incorporation into substrate after 60 mins by gamma counting
[12] = target: Mitogen-activated protein kinase 1 (Homo sapiens, UniProt P28482); assay: Inhibition of ERK2 assessed as [33P]gamma-ATP incorporation into substrate after 60 mins by gamma counting
Mitogen-activated protein kinase 1, sequence (P28482 whole entry): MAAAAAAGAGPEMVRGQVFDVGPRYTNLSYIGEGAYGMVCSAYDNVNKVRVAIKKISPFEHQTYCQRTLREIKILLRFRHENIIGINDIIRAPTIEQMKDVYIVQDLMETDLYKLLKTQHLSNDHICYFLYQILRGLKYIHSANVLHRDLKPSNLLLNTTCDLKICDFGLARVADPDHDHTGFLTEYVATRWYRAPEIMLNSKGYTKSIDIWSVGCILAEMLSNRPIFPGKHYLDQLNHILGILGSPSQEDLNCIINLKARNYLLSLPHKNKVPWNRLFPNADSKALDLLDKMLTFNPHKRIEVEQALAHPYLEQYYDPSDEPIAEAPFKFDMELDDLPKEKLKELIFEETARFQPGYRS

[13] = target: Vascular endothelial growth factor receptor 2 (Homo sapiens, UniProt P35968); assay: Inhibition of VEGFR2 assessed as [33P]gamma-ATP incorporation into substrate after 60 mins by gamma counting
[14] = target: Tyrosine-protein kinase Lyn (Homo sapiens, UniProt P07948); assay: Inhibition of LYN assessed as [33P]gamma-ATP incorporation into substrate after 60 mins by gamma counting
Tyrosine-protein kinase Lyn, sequence (P07948 whole entry): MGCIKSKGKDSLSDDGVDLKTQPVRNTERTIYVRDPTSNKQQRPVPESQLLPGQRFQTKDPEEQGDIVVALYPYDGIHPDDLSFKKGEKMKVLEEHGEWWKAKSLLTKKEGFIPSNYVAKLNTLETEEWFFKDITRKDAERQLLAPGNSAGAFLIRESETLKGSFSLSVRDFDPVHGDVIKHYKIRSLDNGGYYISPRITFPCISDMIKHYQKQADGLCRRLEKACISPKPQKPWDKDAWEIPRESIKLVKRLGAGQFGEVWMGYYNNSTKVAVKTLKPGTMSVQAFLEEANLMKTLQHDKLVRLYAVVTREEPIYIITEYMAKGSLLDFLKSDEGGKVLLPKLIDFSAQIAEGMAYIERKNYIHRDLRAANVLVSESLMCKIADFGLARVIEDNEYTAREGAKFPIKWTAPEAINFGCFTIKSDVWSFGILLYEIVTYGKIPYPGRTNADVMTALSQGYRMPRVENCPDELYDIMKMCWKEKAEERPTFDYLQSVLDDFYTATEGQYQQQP

[15] = target: Protein kinase C beta type (Homo sapiens, UniProt P05771); assay: Inhibition of PKCbeta assessed as [33P]gamma-ATP incorporation into substrate after 60 mins by gamma counting
[16] = Inhibition of PDGFR assessed as [33P]gamma-ATP incorporation into substrate after 60 mins by gamma counting
[17] = test system: Mus musculus; assay: Toxicity in CD1 nu/nu mouse xenografted with human HCT116 cells assessed as mortality at 90 mg/kg, po BID administered on days 1 to 2 in weekly scheduling for 4 cycles; type: organism-based, HCT-116; design: dose 90 mg/kg, route oral; conditions: in vivo
[18] = test system: HCT-116; assay: Antitumor activity against human HCT116 cells xenografted in CD1 nu/nu mouse assessed as tumor growth inhibition at 120 mg/kg, po once daily administered on days 1 to 2 daily in weekly scheduling for 4 cycles measured on day 36; conditions: HCT-116, po, 864 h, read-out: TGI
[19] = test system: HCT-116; assay: Antitumor activity against human HCT116 cells xenografted in CD1 nu/nu mouse assessed as tumor growth inhibition at 45 mg/kg, iv BID administered on days 1 to 3 in weekly scheduling for 2 cycles measured on day 24; type: functional; conditions: HCT-116, 576 h, read-out: TGI
[20] = Inhibition of CK2 assessed as [33P]gamma-ATP incorporation into substrate after 60 mins by gamma counting
[21] = target: Serine/threonine-protein kinase Chk1 (Homo sapiens, UniProt O14757); assay: Inhibition of CHK1 assessed as [33P]gamma-ATP incorporation into substrate after 60 mins by gamma counting
[22] = target: MAP kinase-activated protein kinase 2 (Homo sapiens, UniProt P49137); assay: Inhibition of MAPKAPK2 assessed as [33P]gamma-ATP incorporation into substrate after 60 mins by gamma counting
MAP kinase-activated protein kinase 2, sequence (P49137 whole entry): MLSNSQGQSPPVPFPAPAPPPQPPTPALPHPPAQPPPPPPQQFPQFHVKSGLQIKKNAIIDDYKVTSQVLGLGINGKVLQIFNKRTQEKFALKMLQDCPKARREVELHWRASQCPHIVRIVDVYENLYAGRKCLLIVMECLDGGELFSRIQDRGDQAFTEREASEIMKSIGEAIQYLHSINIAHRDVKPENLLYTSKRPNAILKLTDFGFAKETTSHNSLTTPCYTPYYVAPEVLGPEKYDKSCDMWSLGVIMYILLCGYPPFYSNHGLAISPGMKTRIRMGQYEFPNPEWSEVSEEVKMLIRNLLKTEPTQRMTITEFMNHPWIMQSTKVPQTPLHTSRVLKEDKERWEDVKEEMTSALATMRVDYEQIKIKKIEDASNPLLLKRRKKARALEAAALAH

[23] = Intrinsic clearance in human liver microsomes at 1 uM; type: ADME, Microsome
[24] = target: Serine/threonine-protein kinase NIM1 (Homo sapiens, UniProt Q8IY84); assay: Inhibition of NIM1 assessed as [33P]gamma-ATP incorporation into substrate after 60 mins by gamma counting
Serine/threonine-protein kinase NIM1, sequence (Q8IY84 whole entry): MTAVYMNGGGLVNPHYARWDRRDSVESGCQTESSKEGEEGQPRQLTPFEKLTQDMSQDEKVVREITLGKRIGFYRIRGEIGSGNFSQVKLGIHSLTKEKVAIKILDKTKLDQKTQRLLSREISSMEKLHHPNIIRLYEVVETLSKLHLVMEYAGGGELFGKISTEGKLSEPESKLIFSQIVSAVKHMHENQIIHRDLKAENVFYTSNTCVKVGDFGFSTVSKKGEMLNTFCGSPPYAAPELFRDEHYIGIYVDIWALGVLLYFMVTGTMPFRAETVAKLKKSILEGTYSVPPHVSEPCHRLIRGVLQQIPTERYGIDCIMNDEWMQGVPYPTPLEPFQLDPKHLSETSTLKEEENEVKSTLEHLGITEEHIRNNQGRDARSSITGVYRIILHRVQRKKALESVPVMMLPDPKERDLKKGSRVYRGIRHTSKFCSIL

[25] = target: Insulin receptor (Homo sapiens, UniProt P06213); assay: Inhibition of IR assessed as [33P]gamma-ATP incorporation into substrate after 60 mins by gamma counting
[26] = Solubility of compound at pH 7; type: physicochemical; conditions: buffer
[27] = target: Serine/threonine-protein kinase PAK 4 (Homo sapiens, UniProt O96013); assay: Inhibition of PAK4 assessed as [33P]gamma-ATP incorporation into substrate after 60 mins by gamma counting
Serine/threonine-protein kinase PAK 4, sequence (O96013 whole entry): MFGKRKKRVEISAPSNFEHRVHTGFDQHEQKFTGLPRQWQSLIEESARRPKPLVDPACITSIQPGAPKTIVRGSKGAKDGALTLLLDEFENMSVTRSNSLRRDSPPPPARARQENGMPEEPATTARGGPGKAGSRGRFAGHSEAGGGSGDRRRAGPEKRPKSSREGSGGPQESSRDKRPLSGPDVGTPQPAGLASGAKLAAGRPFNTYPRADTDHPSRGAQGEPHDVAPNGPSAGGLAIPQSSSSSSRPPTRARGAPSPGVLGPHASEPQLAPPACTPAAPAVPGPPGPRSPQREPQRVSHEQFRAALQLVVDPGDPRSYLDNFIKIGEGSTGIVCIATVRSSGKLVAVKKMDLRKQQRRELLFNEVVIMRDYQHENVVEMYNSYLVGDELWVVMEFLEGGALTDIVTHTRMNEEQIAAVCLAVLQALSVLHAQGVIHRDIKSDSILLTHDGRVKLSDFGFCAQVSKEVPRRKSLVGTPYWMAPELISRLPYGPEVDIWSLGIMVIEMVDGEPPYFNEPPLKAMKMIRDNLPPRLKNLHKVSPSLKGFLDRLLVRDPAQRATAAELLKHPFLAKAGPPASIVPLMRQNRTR

[28] = target: Serine/threonine-protein kinase pim-2 (Homo sapiens, UniProt Q9P1W9); assay: Inhibition of PIM2 assessed as [33P]gamma-ATP incorporation into substrate after 60 mins by gamma counting
Serine/threonine-protein kinase pim-2, sequence (Q9P1W9 whole entry): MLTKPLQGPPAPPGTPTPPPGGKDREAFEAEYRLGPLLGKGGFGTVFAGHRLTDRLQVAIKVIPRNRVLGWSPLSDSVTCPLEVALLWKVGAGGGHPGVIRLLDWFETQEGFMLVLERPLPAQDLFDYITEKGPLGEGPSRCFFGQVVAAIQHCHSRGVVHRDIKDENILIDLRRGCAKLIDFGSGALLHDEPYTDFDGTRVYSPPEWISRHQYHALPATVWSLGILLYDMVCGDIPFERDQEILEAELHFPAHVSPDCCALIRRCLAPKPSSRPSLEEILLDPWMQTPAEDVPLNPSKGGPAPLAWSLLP

[29] = target: Fibroblast growth factor receptor 1 (Homo sapiens, UniProt P11362); assay: Inhibition of FGFR1 assessed as [33P]gamma-ATP incorporation into substrate after 60 mins by gamma counting
Fibroblast growth factor receptor 1, sequence (P11362 whole entry): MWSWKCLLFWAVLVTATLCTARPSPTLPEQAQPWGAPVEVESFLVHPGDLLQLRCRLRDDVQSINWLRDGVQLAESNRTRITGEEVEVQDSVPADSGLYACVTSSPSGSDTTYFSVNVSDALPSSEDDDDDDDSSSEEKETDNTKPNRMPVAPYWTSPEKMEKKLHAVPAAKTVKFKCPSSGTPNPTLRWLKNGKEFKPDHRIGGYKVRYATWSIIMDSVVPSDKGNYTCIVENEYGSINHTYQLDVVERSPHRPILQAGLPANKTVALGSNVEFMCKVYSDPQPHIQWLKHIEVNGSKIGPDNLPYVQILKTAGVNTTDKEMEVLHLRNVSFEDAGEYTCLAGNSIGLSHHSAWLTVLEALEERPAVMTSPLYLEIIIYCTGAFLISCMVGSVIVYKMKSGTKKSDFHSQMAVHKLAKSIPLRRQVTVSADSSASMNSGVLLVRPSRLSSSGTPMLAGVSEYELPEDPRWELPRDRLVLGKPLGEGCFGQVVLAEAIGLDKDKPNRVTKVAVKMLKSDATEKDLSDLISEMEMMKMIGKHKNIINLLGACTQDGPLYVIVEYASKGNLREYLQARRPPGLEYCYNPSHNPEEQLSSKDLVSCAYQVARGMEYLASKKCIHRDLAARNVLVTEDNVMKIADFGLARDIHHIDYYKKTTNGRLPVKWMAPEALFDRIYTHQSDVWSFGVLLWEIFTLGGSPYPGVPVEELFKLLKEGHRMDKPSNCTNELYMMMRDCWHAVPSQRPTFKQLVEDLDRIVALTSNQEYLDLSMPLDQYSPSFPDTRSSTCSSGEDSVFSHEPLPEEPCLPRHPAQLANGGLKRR

[30] = target: High affinity nerve growth factor receptor (Homo sapiens, UniProt P04629); assay: Inhibition of TRKA assessed as [33P]gamma-ATP incorporation into substrate after 60 mins by gamma counting
[31] = target: Protein-tyrosine kinase 6 (Homo sapiens, UniProt Q13882); assay: Inhibition of BRK assessed as [33P]gamma-ATP incorporation into substrate after 60 mins by gamma counting
[32] = target: Maternal embryonic leucine zipper kinase (Homo sapiens, UniProt Q14680); assay: Inhibition of MELK assessed as [33P]gamma-ATP incorporation into substrate after 60 mins by gamma counting
[33] = test system: Mus musculus; assay: Toxicity in CD1 nu/nu mouse xenografted with human HCT116 cells assessed as reversible body weight loss at 45 mg/kg, iv BID administered on days 1 to 3 in weekly scheduling for 2 cycles measured on day 15; type: organism-based, HCT-116; design: dose 45 mg/kg, route intravenous; conditions: in vivo
[34] = target: Glycogen synthase kinase-3 beta (Homo sapiens, UniProt P49841); assay: Inhibition of GSK3-beta assessed as [33P]gamma-ATP incorporation into substrate after 60 mins by gamma counting
[35] = target: RAC-alpha serine/threonine-protein kinase (Homo sapiens, UniProt P31749); assay: Inhibition of AKT1 assessed as [33P]gamma-ATP incorporation into substrate after 60 mins by gamma counting
[36] = target: Cyclin-dependent kinase 4/cyclin D1 (Homo sapiens, UniProt P11802); assay: Inhibition of CDK4/CYCD1 assessed as [33P]gamma-ATP incorporation into substrate after 60 mins by gamma counting; type: protein-complex assay

CN1CCN(c2ccc(OC(F)(F)F)c(Nc3ncc4c(n3)-c3c(c(C(N)=O)nn3CCO)CC4)c2)CC1 [ONVANSERTIB]
IC50 [1]: > 10 µM | IC50 [2]: > 10 µM | solubility [3]: > 3400 µg/mL | IC50 [4]: > 10 µM | IC50 [5]: > 10 µM | IC50 [6]: > 10 µM | IC50 [7]: > 10 µM | IC50 [8]: > 10 µM | IC50 [9]: > 10 µM | IC50 [10]: > 10 µM | IC50 [11]: > 10 µM | IC50 [12]: > 10 µM | IC50 [13]: > 10 µM | IC50 [14]: > 10 µM | IC50 [15]: > 10 µM | IC50 [16]: > 10 µM | Activity [17]: Non-toxic | inhibition in vivo at 120 mg/kg [18]: 84% | inhibition in vivo at 45 mg/kg [19]: 83% | IC50 [20]: 826 nM | IC50 [21]: > 10 µM | IC50 [22]: > 10 µM | CLint scaled at 1 µM [23]: 16.9 mL/min/kg | IC50 [24]: > 10 µM | IC50 [25]: > 10 µM | solubility [26]: 201 µM (≈ 107 µg/mL) | IC50 [27]: > 10 µM | IC50 [28]: > 10 µM | IC50 [29]: > 10 µM | IC50 [30]: > 10 µM | IC50 [31]: > 10 µM | IC50 [32]: […] | Activity [33]: 16% | IC50 [34]: > 10 µM | IC50 [35]: > 10 µM | IC50 [36]: > 10 µM
